Source: patent US11285160B2, “Pharmaceutical composition and method for treatment of non-alcoholic fatty liver disease” (MITSUBISHI TANABE PHARMA CORPORATION, priority 2016, dated 2022)

Assays:
[1] = test system: UGT enzymes (Uridine diphosphate glucuronosyltransferase); assay: Main metabolic pathway of compound (I); assay type: in vitro ADME; conditions: estimated
CDAA diet-loaded rats = assay: Hepatic fibrosis development in NASH animal model (CDAA diet-loaded rat), repeated oral administration for 10 weeks; assay type: in vivo, F344 rats; conditions: for Sirius red positive areas (%) (mean ± S.E.): primary endpoint; for Fibrosis development score (mean ± S.E.): score 0-4 (Table 3), secondary endpoint
From the text: Some heads of F344 rats (5-week-old, body weight 67.5 to 87.5 g, purchased from Japan SLC, Inc.) were housed (for quarantine inspection and acclimatization) for 15 days while receiving a normal diet, and were then used as a test animal. The rats were divided into six treatment groups by stratified random allocation using body weight as a randomization factor (each 10 heads of the rats per group). The test compounds (that is, the compound (I) or eplerenone) were suspended into 0.5% aqueous carmellose sodium solution containing a vehicle (0.1% polyoxyethylene hydrogenated castor oil (HCO-60, manufactured by Nikko Chemicals Co., Ltd.)), and the resultant suspensions were used (10 mL/kg). The rats were loaded with a CDAA diet (choline deficient L-amino acid defined diet), and simultaneously with the loading, were received with a repeated oral administration of the above-mentioned compound (I) (1 mg/kg, 3 mg/kg, and 10 mg/kg) at once per day for 10 weeks (hereinafter, which is referred to as “Compound (I)-treated group”). Also, the rats that were loaded with the CDAA diet and were received with the administration of the above-mentioned vehicle (10 mL/kg) were assigned to “disease control group”, and also the rats that were loaded with the CSAA diet and were received with the administration of the above-mentioned vehicle (10 mL/kg) were assigned to “normal control group”. While, “positive control group” rats were loaded with the CDAA diet and were received with a repeated oral administration of eplerenone (100 mg/kg) at once per day for 10 weeks.
After the administration, the test tissues were sampled from lamella of the extracted liver, and the pathological specimens were constructed. Each effect of the respective test compound on NASH was examined using the Sirius red positive areas of the specimens as a primary endpoint. Also the fibrosis development scores of hepatic pathological specimens in each group were examined as the secondary endpoint.

[2] = molecular target: CYP3A4 (cytochrome P450 3A4) (Homo sapiens, UniProt P08684); conditions: Non-Patent documents 12 and 13; cited from earlier work
Chain of CYP3A4 (cytochrome P450 3A4) (P08684 whole entry): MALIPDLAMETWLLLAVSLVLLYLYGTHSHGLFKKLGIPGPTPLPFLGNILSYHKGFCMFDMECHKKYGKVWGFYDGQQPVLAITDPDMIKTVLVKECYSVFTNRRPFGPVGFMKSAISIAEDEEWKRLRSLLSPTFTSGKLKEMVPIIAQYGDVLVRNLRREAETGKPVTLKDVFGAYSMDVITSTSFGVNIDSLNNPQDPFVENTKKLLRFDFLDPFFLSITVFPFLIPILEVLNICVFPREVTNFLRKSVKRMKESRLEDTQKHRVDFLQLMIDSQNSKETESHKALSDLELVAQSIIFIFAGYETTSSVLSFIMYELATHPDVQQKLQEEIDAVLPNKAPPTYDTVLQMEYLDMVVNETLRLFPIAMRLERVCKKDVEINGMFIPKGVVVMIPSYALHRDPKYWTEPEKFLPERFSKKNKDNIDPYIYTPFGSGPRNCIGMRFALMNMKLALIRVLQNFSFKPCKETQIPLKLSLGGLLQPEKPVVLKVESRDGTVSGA

[3] = background statement; cited from earlier work
[4] = CDAA diet-loaded rats, 1 mg/kg oral once per day for 10 weeks
[5] = CDAA diet-loaded rats, 3 mg/kg oral once per day for 10 weeks
[6] = CDAA diet-loaded rats, 10 mg/kg oral once per day for 10 weeks
[7] = CDAA diet-loaded rats, 100 mg/kg oral once per day for 10 weeks

| SMILES | Main metabolic pathway [1] | Sirius red positive areas as compared with disease control group (CDAA diet-loaded rats; 1 mg/kg, 3 mg/kg and 10 mg/kg-treated groups, all) | Fibrosis development scores as compared with disease control group (CDAA diet-loaded rats; 3 mg/kg-treated group and 10 mg/kg-treated group) | Sirius red positive areas (%) (mean ± S.E.) (CDAA diet-loaded rats; [4]) | Fibrosis development score (mean ± S.E.) (CDAA diet-loaded rats; [4]) | Sirius red positive areas (%) (mean ± S.E.) (CDAA diet-loaded rats; [5]) | Fibrosis development score (mean ± S.E.) (CDAA diet-loaded rats; [5]) | Sirius red positive areas (%) (mean ± S.E.) (CDAA diet-loaded rats; [6]) | Fibrosis development score (mean ± S.E.) (CDAA diet-loaded rats; [6]) | Progression of fibrosis development of liver (CDAA diet-loaded rats; CDAA diet-loaded rats, overall conclusion) | Sirius red positive area value at the lowest dose in comparison with eplerenone at a higher dose (CDAA diet-loaded rats; compound (I) lowest dose (1 mg/kg) vs eplerenone 100 mg/kg) | Fibrosis development scores as compared with disease control group (CDAA diet-loaded rats; 100 mg/kg, positive control group) | Sirius red positive areas (%) (mean ± S.E.) (CDAA diet-loaded rats; [7]) | Fibrosis development score (mean ± S.E.) (CDAA diet-loaded rats; [7]) | Metabolizing enzyme [2] | Half-life in blood [3] |
| --- | --- | --- | --- | --- | --- | --- | --- | --- | --- | --- | --- | --- | --- | --- | --- | --- |
| CC1(C)Oc2cc(NS(C)(=O)=O)ccc2N(c2ccc(F)cc2)C1=O [Compound (I)] | glucuronide conjugation by UGT enzymes | significantly lower | significantly lower value | 4.0 ± 0.3 | 3.0 ± 0.0 | 3.6 ± 0.4 | 2.7 ± 0.2 | 1.8 ± 0.2 | 2.2 ± 0.1 | significantly inhibit | significantly lower area value |  |  |  |  |  |
| COC(=O)[C@@H]1CC2=CC(=O)CC[C@]2(C)[C@@]23O[C@@H]2C[C@@]2(C)[C@@H](CC[C@@]24CCC(=O)O4)[C@H]13 [Eplerenone, eplerenone, reference compound] |  |  |  |  |  |  |  |  |  |  |  | not significantly different | 2.8 ± 0.2 | 3.0 ± 0.0 | metabolized mainly by CYP3A4 | short half-life |
